{"source": "the supplement of paper PMC10307832", "assay_in_all_cases": "relative viability (nuclei count vs DMSO), 5 days (fraction); higher = more cells survive", "key": {"[1]": {"compound": "COc1ccc(-c2ccc3c(N4CCOC[C@@H]4C)nc(N4CCOC[C@@H]4C)nc3n2)cc1CO [AZD8055] + NC(=O)Nc1cc(-c2cccc(F)c2)sc1C(=O)N[C@H]1CCCNC1 [AZD7762] (partner 0.2 µM)", "method_in_brief": "(§1)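 Lung cancer cell lines were seeded in 1536-well plates and dosed by pin tool the next day, with either a single drug or a fixed anchor-drug dose combined with five library-drug doses (not always all listed) spaced in √10 steps. Five days later, one step fixed the cells and stained their nuclei (final 0.05% Triton X-100, 1% formaldehyde, 1 ug/ml Hoechst), and nuclei were counted on 4× images. Relative viability is the nuclei count in treated wells divided by the count in vehicle wells, and each value is the median of duplicate plates.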"}, "[2]": {"compound": "COc1ccc(-c2ccc3c(N4CCOC[C@@H]4C)nc(N4CCOC[C@@H]4C)nc3n2)cc1CO [AZD8055] + Nc1nc2[nH]cc(CCc3ccc(C(=O)N[C@@H](CCC(=O)O)C(=O)O)cc3)c2c(=O)[nH]1 [Pemetrexed] (partner 0.2 µM)", "method_in_brief": "as §1"}, "[3]": {"compound": "COc1ccc(-c2ccc3c(N4CCOC[C@@H]4C)nc(N4CCOC[C@@H]4C)nc3n2)cc1CO [AZD8055] + COc1cccc2cc(-c3nc([C@H]4CC[C@H](C(=O)O)CC4)n4ncnc(N)c34)[nH]c12 [OSI-027] (partner 0.5 µM)", "method_in_brief": "as §1"}, "[4]": {"compound": "COc1ccc(-c2ccc3c(N4CCOC[C@@H]4C)nc(N4CCOC[C@@H]4C)nc3n2)cc1CO [AZD8055] + COc1cc2c(Oc3ccc(NC(=O)C4(C(=O)Nc5ccc(F)cc5)CC4)cc3F)ccnc2cc1OCCCN1CCOCC1 [Foretinib] (partner 0.25 µM)", "method_in_brief": "as §1"}}}
{"cell line": "HCC-44", "values": [{"measurement": "relative viability", "setting": "[1]; first compound 0.01 µM", "result": 1.03}, {"measurement": "relative viability", "setting": "[1]; first compound 0.03162 µM", "result": 1.01}, {"measurement": "relative viability", "setting": "[1]; first compound 0.1 µM", "result": 0.972}, {"measurement": "relative viability", "setting": "[1]; first compound 0.3162 µM", "result": 0.992}, {"measurement": "relative viability", "setting": "[1]; first compound 1 µM", "result": 0.925}, {"measurement": "relative viability", "setting": "[2]; first compound 0.01 µM", "result": 0.65}, {"measurement": "relative viability", "setting": "[2]; first compound 0.03162 µM", "result": 0.702}, {"measurement": "relative viability", "setting": "[2]; first compound 0.1 µM", "result": 0.665}, {"measurement": "relative viability", "setting": "[2]; first compound 0.3162 µM", "result": 0.655}, {"measurement": "relative viability", "setting": "[2]; first compound 1 µM", "result": 0.673}, {"measurement": "relative viability", "setting": "[3]; first compound 0.01 µM", "result": 0.6}, {"measurement": "relative viability", "setting": "[3]; first compound 0.03162 µM", "result": 0.526}, {"measurement": "relative viability", "setting": "[3]; first compound 0.1 µM", "result": 0.483}, {"measurement": "relative viability", "setting": "[3]; first compound 0.3162 µM", "result": 0.267}, {"measurement": "relative viability", "setting": "[3]; first compound 1 µM", "result": 0.308}]}
{"cell line": "NCI-H2228", "values": [{"measurement": "relative viability", "setting": "[2]; first compound 0.01 µM", "result": 0.41}, {"measurement": "relative viability", "setting": "[2]; first compound 0.03162 µM", "result": 0.345}, {"measurement": "relative viability", "setting": "[2]; first compound 0.1 µM", "result": 0.233}, {"measurement": "relative viability", "setting": "[2]; first compound 0.3162 µM", "result": 0.171}, {"measurement": "relative viability", "setting": "[2]; first compound 1 µM", "result": 0.171}, {"measurement": "relative viability", "setting": "[3]; first compound 0.01 µM", "result": 0.548}, {"measurement": "relative viability", "setting": "[3]; first compound 0.03162 µM", "result": 0.446}, {"measurement": "relative viability", "setting": "[3]; first compound 0.1 µM", "result": 0.281}, {"measurement": "relative viability", "setting": "[3]; first compound 0.3162 µM", "result": 0.176}, {"measurement": "relative viability", "setting": "[3]; first compound 1 µM", "result": 0.234}, {"measurement": "relative viability", "setting": "[4]; first compound 0.01 µM", "result": 0.739}, {"measurement": "relative viability", "setting": "[4]; first compound 0.03162 µM", "result": 0.54}, {"measurement": "relative viability", "setting": "[4]; first compound 0.1 µM", "result": 0.385}, {"measurement": "relative viability", "setting": "[4]; first compound 0.3162 µM", "result": 0.166}, {"measurement": "relative viability", "setting": "[4]; first compound 1 µM", "result": 0.241}]}
{"cell line": "ABC-1", "values": [{"measurement": "relative viability", "setting": "[1]; first compound 0.01 µM", "result": 0.879}, {"measurement": "relative viability", "setting": "[1]; first compound 0.03162 µM", "result": 0.766}, {"measurement": "relative viability", "setting": "[1]; first compound 0.1 µM", "result": 1.02}, {"measurement": "relative viability", "setting": "[1]; first compound 0.3162 µM", "result": 0.406}, {"measurement": "relative viability", "setting": "[1]; first compound 1 µM", "result": 0.495}, {"measurement": "relative viability", "setting": "[3]; first compound 0.01 µM", "result": 0.537}, {"measurement": "relative viability", "setting": "[3]; first compound 0.03162 µM", "result": 0.551}, {"measurement": "relative viability", "setting": "[3]; first compound 0.1 µM", "result": 0.635}, {"measurement": "relative viability", "setting": "[3]; first compound 0.3162 µM", "result": 0.345}, {"measurement": "relative viability", "setting": "[3]; first compound 1 µM", "result": 0.36}, {"measurement": "relative viability", "setting": "[4]; first compound 0.01 µM", "result": 1.2}, {"measurement": "relative viability", "setting": "[4]; first compound 0.03162 µM", "result": 0.909}, {"measurement": "relative viability", "setting": "[4]; first compound 0.1 µM", "result": 0.997}, {"measurement": "relative viability", "setting": "[4]; first compound 0.3162 µM", "result": 0.701}, {"measurement": "relative viability", "setting": "[4]; first compound 1 µM", "result": 0.324}]}
{"cell line": "COR-L23", "values": [{"measurement": "relative viability", "setting": "[2]; first compound 0.01 µM", "result": 0.204}, {"measurement": "relative viability", "setting": "[2]; first compound 0.03162 µM", "result": 0.194}, {"measurement": "relative viability", "setting": "[2]; first compound 0.1 µM", "result": 0.186}, {"measurement": "relative viability", "setting": "[2]; first compound 0.3162 µM", "result": 0.177}, {"measurement": "relative viability", "setting": "[2]; first compound 1 µM", "result": 0.178}, {"measurement": "relative viability", "setting": "[3]; first compound 0.01 µM", "result": 0.765}, {"measurement": "relative viability", "setting": "[3]; first compound 0.03162 µM", "result": 0.588}, {"measurement": "relative viability", "setting": "[3]; first compound 0.1 µM", "result": 0.526}, {"measurement": "relative viability", "setting": "[3]; first compound 0.3162 µM", "result": 0.297}, {"measurement": "relative viability", "setting": "[3]; first compound 1 µM", "result": 0.256}, {"measurement": "relative viability", "setting": "[4]; first compound 0.01 µM", "result": 1.24}, {"measurement": "relative viability", "setting": "[4]; first compound 0.03162 µM", "result": 0.893}, {"measurement": "relative viability", "setting": "[4]; first compound 0.1 µM", "result": 0.822}, {"measurement": "relative viability", "setting": "[4]; first compound 0.3162 µM", "result": 0.353}, {"measurement": "relative viability", "setting": "[4]; first compound 1 µM", "result": 0.233}]}
{"cell line": "NCI-H661", "values": [{"measurement": "relative viability", "setting": "[2]; first compound 0.01 µM", "result": 1.02}, {"measurement": "relative viability", "setting": "[2]; first compound 0.03162 µM", "result": 0.882}, {"measurement": "relative viability", "setting": "[2]; first compound 0.1 µM", "result": 0.868}, {"measurement": "relative viability", "setting": "[2]; first compound 0.3162 µM", "result": 0.579}, {"measurement": "relative viability", "setting": "[2]; first compound 1 µM", "result": 0.418}, {"measurement": "relative viability", "setting": "[3]; first compound 0.01 µM", "result": 0.782}, {"measurement": "relative viability", "setting": "[3]; first compound 0.03162 µM", "result": 0.668}, {"measurement": "relative viability", "setting": "[3]; first compound 0.1 µM", "result": 0.575}, {"measurement": "relative viability", "setting": "[3]; first compound 0.3162 µM", "result": 0.41}, {"measurement": "relative viability", "setting": "[3]; first compound 1 µM", "result": 0.341}, {"measurement": "relative viability", "setting": "[4]; first compound 0.01 µM", "result": 1.06}, {"measurement": "relative viability", "setting": "[4]; first compound 0.03162 µM", "result": 0.99}, {"measurement": "relative viability", "setting": "[4]; first compound 0.1 µM", "result": 0.795}, {"measurement": "relative viability", "setting": "[4]; first compound 0.3162 µM", "result": 0.5}, {"measurement": "relative viability", "setting": "[4]; first compound 1 µM", "result": 0.425}]}
